Source: US7081473B2, “Agent for preventing/ameliorating obesity comprising methylidene hydrizide compound as active ingredient” (Sanwa Kagaku Kenkyusho Co., Ltd., priority 2002, dated 2006)
pIC50: −log10 of the molar value.

Key:
human GIP receptor = molecular target: T1, human GIP receptor (Homo sapiens, UniProt P48546); test: Inhibition of cAMP production by GIP stimulation in human GIP receptor-expressing CHO cells; format: cell-based; details: for pIC50: 100 pM GIP, 37° C., 30 minutes, human GIP receptor-expressing CHO cells, read-out: IC50 (concentration of the compound at which the production of cAMP by GIP is inhibited by 50%)
T1 construct: expressed in transfected cells; host or cells: CHO cells
T1 sequence (P48546 22-466): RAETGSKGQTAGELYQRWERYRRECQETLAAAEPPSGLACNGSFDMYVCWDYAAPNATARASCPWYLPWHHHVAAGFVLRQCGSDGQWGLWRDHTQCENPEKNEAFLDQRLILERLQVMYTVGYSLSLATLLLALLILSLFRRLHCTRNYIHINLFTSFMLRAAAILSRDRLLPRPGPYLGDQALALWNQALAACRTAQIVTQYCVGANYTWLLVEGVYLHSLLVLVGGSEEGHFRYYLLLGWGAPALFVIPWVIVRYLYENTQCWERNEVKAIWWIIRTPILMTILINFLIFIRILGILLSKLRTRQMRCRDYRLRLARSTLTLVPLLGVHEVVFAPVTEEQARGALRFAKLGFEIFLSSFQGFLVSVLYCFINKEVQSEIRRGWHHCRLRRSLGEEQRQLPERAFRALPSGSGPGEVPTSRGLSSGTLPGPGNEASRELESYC
Text: The system for evaluation of GIP function inhibitors (GIP receptor antagonists and the like) made use of the following method wherein their inhibitory activity on production of cAMP as GIP intracellular transmitter was used as an indicator.
According to a method of Kubota et al. (Diabetes 45: 1701–1705, 1996), human GIP receptor-expressing cells prepared by introducing GIP cDNA into CHO cells were used. First, cAMP was produced by stimulation with 100 pM GIP in the presence/absence of the test chemical at 37° C. for 30 minutes in phosphate-buffered saline, pH 7.4, containing 1 mM isobutylmethylxanthine, 5.6 mM glucose and 0.5% bovine serum albumin. Then, using a cAMP assay system (PE Biosystems), the cells were lyzed with an attached lysis buffer, the amount of cAMP accumulated in the cells was measured, and the inhibitory activity of the test sample on the functions of GIP was determined. To verify the action of the test sample completely irrelevant to the action on GIP receptor, the inhibitory effect of the test sample on formation of cAMP upon stimulating, with 5 μM forskolin, CHO cells into which the GIP receptor gene had not been introduced (cells not expressing the GIP receptor) was also confirmed. The inhibitory activity was expressed in terms of IC50 (concentration of the compound at which the production of cAMP by GIP is inhibited by 50%). A compound not showing any inhibitory activity on formation of cAMP in the cells not expressing the GIP receptor, but inhibiting the formation of cAMP by stimulation with GIP, in the cells expressing the GIP receptor, was regarded as an active compound.

GIP = details: disclosed in WO 01/87341; read-out: IC50 (inhibiting the functions of GIP); cited from earlier work

| Compound | pIC50 (human GIP receptor) | pIC50 (GIP) | inhibition of cAMP formation upon stimulation with GIP (functions of GIP) (human GIP receptor; cells expressing the GIP receptor, result in words) |
| --- | --- | --- | --- |
| COc1ccc(/C=N/NC(=O)c2ccc(O)c(Cl)c2)c2ccccc12 [Compound 3, 3-Chloro-4-hydroxybenzoic acid (4-methoxynaphthalen-1-yl)methylidene hydrazide] | 6.25 | – | – |
| Cc1cc(O)n2nc(-c3ccccc3)c(Br)c2n1 [3-bromo-5-methyl-2-phenylpyrazolo[1,5-a]pyrimidin-7-ol] | – | ~4.40 | – |
| O=C(N/N=C/c1ccccc1Br)c1ccc(O)cc1 [Compound 1] | 4.72 | – | inhibited the functions of GIP though at low levels |
| Cc1cc(C)c(C)c(Cn2ccc3c(/C=N/NC(=O)c4ccc(O)c(C#N)c4)cccc32)c1C [Compound 2, 3-Cyano-4-hydroxybenzoic acid [1-(2,3,5,6-tetramethylbenzyl)indol-4-yl]methylidene hydrazide] | 8.20 | – | – |
| O=C(N/N=C/c1ccc2c(ccn2Cc2ccc(Cl)s2)c1)c1ccc(O)c(Cl)c1 [Compound 4, 3-Chloro-4-hydroxybenzoic acid [1-(5-chlorothiophen-2-ylmethyl)-1H-indol-5-yl]methylidene hydrazide] | 6.36 | – | – |
